Measurements from publication PMC7804430, “Synthesis and tumour cell uptake studies of gadolinium(III)–phosphonium complexes” (Scientific Reports, 2021).

Tests used:
[1] = literature values for HPLC calibration curve; cited from earlier work
HF1 tumour cell line = tested on: HF1 tumour cell line; design: method as in PMID 19825958, PMID 15388578; conditions: cited from earlier work
[2] = Competition (challenge) stability assay with xylenol orange at acidic pH; format: physicochemical; conditions: absorbance shift 433 to 573 nm
Procedure: In this work, the relative stability of complexes 6 and 7 were compared to the previously-reported archetypal Gd(III)-DO3A triphenylphosphonium complex (11, shown in Fig. 2) at acidic pH by means of a competition (challenge) assay using the lanthanoid(III) ion indicator xylenol orange[32]. These assays were performed under mildly acidic conditions to ensure the phenolic hydroxyl was protonated prior to chelation.
Solution stability assays were performed using the method described by Barge et al.[32]. Initially an acetate buffer solution (50 mM) was prepared, a portion of which was adjusted to pH 5.8 using NaOH, while other portions were adjusted to pH 5.0, 4.0, or 3.0 using glacial acetic acid. Xylenol orange (5.81 mg) was dissolved in the pH 5.8 acetate buffer (48.4 mL) to give a 10 × concentrated stock solution. These solutions were treated as light sensitive, work was conducted in minimal light and solutions were covered in foil.
25 mM stock solutions of each GdCl3, […] 11 were prepared in the various buffer solutions. […] The plates were agitated in a plate reader and allowed to equilibrate for 24 h. […] The plates were again agitated in a plate reader and allowed to equilibrate for 15 min at RT. The absorbance values were then determined at both 573 nm and 433 nm by means of a BMG LABTECH POLARstar Omega, UV Spectrometer, and the data plotted and processed using Graphpad Prism 7.

Which “logD7.4 of calibration standards” value [1] does the source give for Nc1ccccc1 [aniline] here?
The value was 0.90.

For Motexafin-Gd [MGd], which IC50 (HF1 tumour cell line; HF1 tumour cell line, read-out: Concentration resulting in 50% cell arrest) is on record?
Its IC50 is less than 100 µM.

And the “Concentration exhibiting significant cytotoxicity” value (HF1 tumour cell line; in the absence of any X-ray irradiation)?
Its value is “ca. 50 μM”.

With c1ccc(N(c2ccccc2)c2ccccc2)cc1 [triphenylamine] as the compound, how does the “logD7.4 of calibration standards” value [1] read?
Its value is 5.74.

For [Cl][Gd]([Cl])[Cl] [GdCl3], which “% Gd^3+ retention” value ([2]; pH 5.0, 24 h) is on record?
The value was 0%.

What about the “% Gd^3+ retention” value ([2]; pH 5.8, 24 h) of the same compound?
Its value is 0%.
